{"source": "patent US10317395B1", "about": "“Ex vivo engineered immune organoids for controlled germinal center reactions” (Cornell University, priority 2015, dated 2019)", "tested_on": "CD19+ B cells", "experiment": "RGD blocking of B cells with Cilengitide", "format": "cell-based, C57BL6 mice", "details": "10 or 50 μM Cilengitide, 2 days, 3D organoids; αvβ3 and αvβ5 integrin binding to RGD", "procedure": "Immune organoids were incubated in rinsed and incubated in FACS buffer containing fluorescence-conjugated antibodies and/or live cell stains for 12 hours at cell culture conditions. The samples underwent three rinsing rounds with each one involving aspiration of old medium and incubation in fresh FACS buffer for 1 hour. Each organoid was covered with 1×PBS during imaging with Zeiss 710 confocal microscope (Zeiss). In all flow cytometry experiments we started with same number of naïve B cells, i.e. 20,000 B cells. At each time point, samples were degraded using collagenase and the entire cell suspension (regardless of final cell numbers) was re-suspended in equal volume for all samples and equally divided into 3 separate staining groups for flow cytometry analysis (to stain for CD19, GL7, Fas, IgM, IgG1, and IgE). The entire volume was analyzed for total number of cells. Extracted cells were stained by incubation in FACS buffer containing various combinations of antibodies with 1:1000 dilution for 45 minutes in the dark at 4° C. The antibodies consisted of: FITC-, APC, or PE-Cy7-conjugated anti-mouse CD19, GL7, Fas, CD40L, IgG, and IgM (eBioscience). FACS buffer was prepared using 1×PBS++ with 10% FBS. The cell suspension was rinsed twice using the same buffer prior to low cytometer using BD Accuri™ C6 flow cytometer. Data analysis was performed using FlowJo (Tree Star). […]", "note": "“Also recorded” adds a separate entry of the source.", "data": [{"compound": "CC(C)[C@H]1C(=O)N[C@@H](CCCN=C(N)N)C(=O)NCC(=O)N[C@@H](CC(=O)O)C(=O)N[C@H](Cc2ccccc2)C(=O)N1C", "note": "[Cilengitide]", "values": [{"measurement": "change in CD19+ B cells when RGD signaling is blocked", "result": "partial reduction; also recorded: partial but significant decrease"}]}]}
